In US10799478B2, “Treatment of androgen deprivation therapy associated symptoms” (priority 2014, dated 2020):

What was measured:
human Androgen receptor = molecular target: T1, human Androgen receptor (Homo sapiens, UniProt P10275); experiment: hAR binding affinity (Ki); settings: comparison with R1881
T1 sequence (P10275 1-920): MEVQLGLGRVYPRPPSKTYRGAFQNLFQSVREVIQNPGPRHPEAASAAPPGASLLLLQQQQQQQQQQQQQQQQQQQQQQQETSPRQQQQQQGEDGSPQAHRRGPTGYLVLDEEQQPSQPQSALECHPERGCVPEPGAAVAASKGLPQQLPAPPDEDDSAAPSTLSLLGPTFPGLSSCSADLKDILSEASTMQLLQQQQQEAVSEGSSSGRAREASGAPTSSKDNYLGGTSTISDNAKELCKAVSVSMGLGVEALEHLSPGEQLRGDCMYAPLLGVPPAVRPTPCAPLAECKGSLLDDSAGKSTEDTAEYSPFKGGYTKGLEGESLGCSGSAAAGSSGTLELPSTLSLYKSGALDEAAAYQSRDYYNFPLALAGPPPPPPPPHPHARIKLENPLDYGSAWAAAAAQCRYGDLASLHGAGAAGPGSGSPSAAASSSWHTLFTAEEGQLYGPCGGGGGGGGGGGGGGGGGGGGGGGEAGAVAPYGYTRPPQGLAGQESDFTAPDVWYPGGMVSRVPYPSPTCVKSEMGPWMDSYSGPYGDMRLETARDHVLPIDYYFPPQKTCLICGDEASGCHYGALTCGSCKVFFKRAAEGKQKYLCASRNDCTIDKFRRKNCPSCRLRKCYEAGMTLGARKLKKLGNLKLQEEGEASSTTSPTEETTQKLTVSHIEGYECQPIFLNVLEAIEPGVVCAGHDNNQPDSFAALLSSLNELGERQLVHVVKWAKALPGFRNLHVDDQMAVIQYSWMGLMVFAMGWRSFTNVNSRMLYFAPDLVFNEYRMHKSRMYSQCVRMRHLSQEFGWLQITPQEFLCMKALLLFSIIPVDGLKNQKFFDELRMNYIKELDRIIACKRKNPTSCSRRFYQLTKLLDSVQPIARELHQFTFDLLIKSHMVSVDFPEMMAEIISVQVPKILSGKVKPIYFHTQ

beagle dogs = experiment: Four Week Oral Toxicity Study in Dogs; type: in vivo, dog
Method: […] One additional group of three animals/sex serves as the control and receives the vehicle, 80% PEG 3350/20% Vitamin E TPGS (v/v) via oral capsule. The test article or vehicle is administered to all groups via oral capsule, twice a day for 28 consecutive days, at a dose volume of 1.5 mL/kg/dose.
Observations for mortality, morbidity, injury, and the availability of food and water are conducted twice daily for all animals. Detailed clinical observations are conducted weekly. Body weights are measured and recorded the day after receipt, prior to randomization, and weekly during the study. Food consumption is measured and recorded weekly. Ophthalmoscopic examinations are conducted pretest and prior to the terminal necropsy. Physical examinations are conducted pretest. Neurological examinations are conducted during Weeks 1 and 4. ECG examinations are conducted twice prior to the initiation of dosing and prior to and approximately 2 hours (±15 minutes) after the morning test article administration on Days 3 and 26. […] The toxicokinetic parameters are determined for the test article from concentration-time data in the test species. At study termination, necropsy examinations are performed, organ weights are recorded, and testes, epididymis, and prostates are microscopically examined.

SMILES: CC(C)OC(=O)N[C@H]1Cc2c(n(Cc3ccccn3)c3ccc(C#N)cc23)C1 (single isomer, unassigned) [Example 1]
- biochemical binding affinity to the human Androgen receptor (human Androgen receptor): only modestly reduced
- increase of exposure with dose (beagle dogs; dogs given 6 and 60 mg/kg/day, plateau at 60 mg/kg/day): less than dose proportional
- gender effect on exposure (beagle dogs; male vs female dogs): no gender effect
